Test results taken from patent US20080113915A1, “SAPAP3 knockout mouse and clinical modeling associated with the SAPAP3 gene” (Duke University, priority 2006, published 2008).

Legend:
SAPAP3 knockout mice [1] = experiment: Light-dark box emergence test after Fluoxetine treatment; type: in vivo, mouse; details: after 6 days of treatment with 5 mg/kg, intraperitoneal
Description: In the light dark box test, SAPAP3 knockout mice and wild type mice were individually placed into the dark half a two chamber box. The box contained a completely dark chamber and a chamber lit with a bright light. At time=0, the door was opened between the two chambers.
Following videotaping, the four groups of mice were tested on the light-dark box emergence test.

SAPAP3 knockout animals = details: mouse, in vivo, 10 mg/kg
SAPAP3 knockout mice [2] = experiment: Videotaped grooming behaviour scoring after Fluoxetine treatment; type: in vivo, mouse; details: 5 mg/kg daily intraperitoneal, after six days, vs SAPAP3 knockout vehicle control group
Description: To ascertain the source of the lesions quantitative, video studies of the knockout mice were performed. Groups of 10 wild type mice and 10 knockout mice were housed such that each mouse was isolated in a single cage. Following an acclimatization period to individual housing, each mouse was videotaped for 24 hours. Three, four-hour sections (10 AM-2 PM, 6 PM-10 PM, and 2 AM-6 AM) of each 24-hour period were watched and scored for a panel of behaviors: grooming, drinking/eating, sleeping, rearing, digging/shifting, or alert/active. When analyzed on either a “time spent” or “number of bouts engaged in” basis, it was obvious that SAPAP3 knockout mice groomed far more than their wild type counterparts in every time period examined (see FIGS. 3 and 4).
Two cohorts of eight SAPAP3 knockout mice and two cohorts of eight wild type mice were housed in isolation and allowed to acclimate as in Example 2. One cohort of each genotype served as an experimental group and the other as a vehicle control group. The experimental groups were given a daily intraperitoneal injection of 5 mg/kg Fluoxetine for fourteen days. The control groups were given a daily vehicle injection under the same conditions.
After six days, mice from each group were individually videotaped and their behaviors scored as in Example 2. […]

SAPAP3 knockout mice [3] = experiment: Semi-quantitative scoring of lesion severity (scale 0-4); type: in vivo, mouse
Description: Four cohorts of eight SAPAP3 knockout mice and four cohorts of eight wild type mice were housed in isolation and allowed to acclimate as above. One cohort of each genotype served as a 5 mg/kg Fluoxetine experimental group, one as a 10 mg/kg Fluoxetine experimental group, one as a vehicle control group, and one as an uninjected control group.

[4] = share of SAPAP3 KO mice, Fluoxetine groups (5 and 10 mg/kg) combined, at two weeks

## CNCCC(Oc1ccc(C(F)(F)F)cc1)c1ccccc1 (stereo not shown) [Fluoxetine]
SAPAP3 knockout mice [1]
  performance on the light-dark box emergence test (latency to leave dark chamber): significantly improved
SAPAP3 knockout animals
  toxicity to SAPAP3 knockout animals relative to wild type controls: progressively more toxic
SAPAP3 knockout mice [2]
  bouts of grooming: far fewer bouts of grooming
SAPAP3 knockout mice [3]; SAPAP3 knockout mice, 5 and 10 mg/kg groups combined vs vehicle and uninjected groups combined, over a 2 week period
  lesion severity (scale of 0-4): stabilized or improved lesions
SAPAP3 knockout mice [3]; [4]
  Lesion severity: Improve: 28.6%
  Lesion severity: No Change: 71.4%
  Lesion severity: Worse: 0%
